Data reported in patent publication US6051389A, “Enzyme sensor” (Radiometer Medical A/S, priority 1996, dated 2000).
Counter-ions that a name gives are not always drawn.

System: lactate oxidase
Assay: Enzyme Stability Test: oxalate as stabilising agent for lactate oxidase in S4932 rinse solution (Example 5)
Assay type: biochemical, Pediococcus
Experimental: Colorimetric lactate oxidase assay
The formation of H2 O2 is determined in a peroxidase (POD) assay system where a quinonimine dye is formed. The amount of formed quinonimine dye is determined spectrophotometically at 490 nm.
100 μL of Reagent A is added to a well of a microtiterplate (Immunoplate, Nunc, Roskilde, Denmark). The colour reaction is started by adding 100 μL of the Enzyme Solution. Immediately afterwards, the microtiterplate is placed in the plate-holder of a THERMOmax incubator (Molecular Devices, Menlo Park, Calif., USA) pre-set to: 37° C., kinetic mode, lag-time 5 min., reading time 15 min., and automix.
The enzymatic activity of lactate oxidase (and also other enzymes) is decreasing exponentially. Therefore, the half-life period (t1/2) for the enzymatic activity will be independent of the initial concentration, and, thus, t1/2 is an excellent expression for the stability of an enzyme under various conditions.
The enzymatic activity is determined (as described in the Enzyme Activity Test above) for the enzyme composition in question at least four times over a relevant period, e.g. every day for at least four days (day 0 to day 3). t1/2 is then calculated following standard mathematical methods.
A solution of 0.04 U/mL lactate oxidase in S4932 rinse solution (Radiometer Medical A/S, Copenhagen, Denmark) was prepared. Disodium oxalate corresponding to a total concentration of 1, 2, 4, 8, and 16 mM of oxalate was added. The enzymatic activity of the solutions was determined five times over a period of 13 days. The enzymatic stability of these solutions was compared with the enzymatic stability of a solution without oxalate.

## O=C(O)C(=O)O [Oxalate, disodium oxalate]
Oxalate 1 mM, time 0 h, 0.04 U/mL lactate oxidase
  Enzymatic Activity: 13.76 mOD/min.
Oxalate 1 mM, time 68.5 h
  Enzymatic Activity: 11.47 mOD/min.
Oxalate 1 mM, time 148 h
  Enzymatic Activity: 11.01 mOD/min.
Oxalate 1 mM, time 199 h
  Enzymatic Activity: 9.89 mOD/min.
Oxalate 1 mM, time 319 h
  Enzymatic Activity: 8.67 mOD/min.
Oxalate 2 mM, time 0 h, 0.04 U/mL lactate oxidase
  Enzymatic Activity: 13.63 mOD/min.
Oxalate 2 mM, time 68.5 h
  Enzymatic Activity: 12.08 mOD/min.
Oxalate 2 mM, time 148 h
  Enzymatic Activity: 11.07 mOD/min.
Oxalate 2 mM, time 199 h
  Enzymatic Activity: 9.92 mOD/min.
Oxalate 2 mM, time 319 h
  Enzymatic Activity: 8.63 mOD/min.
Oxalate 4 mM, time 0 h, 0.04 U/mL lactate oxidase
  Enzymatic Activity: 12.87 mOD/min.
Oxalate 4 mM, time 68.5 h
  Enzymatic Activity: 11.90 mOD/min.
Oxalate 4 mM, time 148 h
  Enzymatic Activity: 11.36 mOD/min.
Oxalate 4 mM, time 199 h
  Enzymatic Activity: 10.36 mOD/min.
Oxalate 4 mM, time 319 h
  Enzymatic Activity: 9.60 mOD/min.
Oxalate 8 mM, time 0 h, 0.04 U/mL lactate oxidase
  Enzymatic Activity: 11.86 mOD/min.
Oxalate 8 mM, time 68.5 h
  Enzymatic Activity: 11.34 mOD/min.
Oxalate 8 mM, time 148 h
  Enzymatic Activity: 10.86 mOD/min.
Oxalate 8 mM, time 199 h
  Enzymatic Activity: 9.84 mOD/min.
Oxalate 8 mM, time 319 h
  Enzymatic Activity: 9.33 mOD/min.
Oxalate 16 mM, time 0 h, 0.04 U/mL lactate oxidase
  Enzymatic Activity: 10.37 mOD/min.
Oxalate 16 mM, time 68.5 h
  Enzymatic Activity: 10.15 mOD/min.
Oxalate 16 mM, time 148 h
  Enzymatic Activity: 9.72 mOD/min.
Oxalate 16 mM, time 199 h
  Enzymatic Activity: 8.81 mOD/min.
Oxalate 16 mM, time 319 h
  Enzymatic Activity: 8.65 mOD/min.
